Test results reported in US10898504B2, “Substituted nucleoside analogues for use as PRMT5 inhibitors” (Janssen Pharmaceutica NV, priority 2016, dated 2021).
Where “and” joins values, the source holds several entries; their conditions need not be identical. Equal values may be shown once.

Assays:
[1] = test system: A549 cells; assay: PD assay (Assay 2): inhibition of nuclear symmetric Arginine dimethylation (SYM10 immunohistochemistry) in A549 cells; format: cell-based; details: individual measurements shown; for IC50: Homo sapiens, A549, PD assay in A549 cells, read-out: pIC50 Assay 2 (converted); for pIC50 Assay 2: PD assay in A549 cells
Protocol: EXPERIMENTAL PROCEDURE PD ASSAY (ASSAY 2)
A549 cells (ATCC, Cat #CCL-185) were cultured in Dulbecco's Modified Eagle's Medium (DMEM) (Sigma, Cat #D5796), supplemented with 10% Fetal Calf Serum (FCS)(HyClone™, Cat #SV30160.03), 100 mM Sodium Pyruvate (Sigma, Cat #S8636), 200 mM L-Glutamine (Sigma, Cat #G7513) and 50 mg/mL Gentamycing (Gibco, Cat #15750-037).
Reagents used for buffers were purchased: Dulbecco's phosphate buffered saline (DPBS) without Ca/Mg (Sigma, Cat #D8537), phosphate buffered saline (PBS) 10× (Roche, Cat #11 666 789 001), Formalin solution 10% (Sigma, HT50-1-128-4L), MeOH 100% (Sigma, Cat #32213-2.5L), Triton X-100 (Acros, Cat #215680010), Bovine Serum Albumin (BSA) (Sigma, Cat #A2153), Alexa fluor 488 goat anti-rabbit antibody (Life Technologies, Cat #A11034), HCS CellMask Deep Red Stain (Life Technologies, Cat #H32721), Hoechst Stain (Life Technologies, Cat #33258), Anti-dimethyl-Arginine, sym (SYM10) antibody (Millipore, 07-412).
Immunohistochemistry Procedure
Cells were plated at 400 cells/40 μL/well in 384 well black plates μclear bottom (Perkin Elmer) and overnight incubated at 37° C., 5% CO2. The IC50 Studies were performed using nine point dosing series ranging from 10 μM to […] for each compound. 80 nL of the respective dilution of the compounds was added using the Labcyte POD 810 (Labcyte) reaching a final DMSO concentration of 0.2% in cell culture. After an incubation period of 48 h at 37° C. and 5% CO2, cells were fixed in 10% formalin solution for 15 min at r.t. and 20 min in ice-cold MeOH, after which they were washed 3× in DPBS. Subsequently, the cells were blocked for 1 h in blocking buffer (PBS+1% BSA and 0.5% Triton X-100) and incubated overnight at 4° C. with the SYM10 antibody diluted 1/2000 in blocking buffer. The cells were washed 3× with washing buffer (PBS+0.1% Triton X-100) and incubated with the Alexa fluor 488 goat anti-rabbit antibody diluted 1/200 in blocking buffer for 1 h at r.t. Subsequently, they were washed 3× with washing buffer and incubated for 30 min at r.t. with PBS containing a 1/5000 dilution of Hoechst Stain and a 1/5000 dilution of the HCS CellMask Deep Red Stain. After a final wash with PBS, the plates were imaged using the 10×W lens of the Opera® system (Perkin Elmer Life Sciences) using following settings (values in nm):
In the above equations, the following variable names are use: […]
In the above equations, the following controls were used for normalization: […]
Low control: minimum level of symmetrically dimethylated Arginines (cells treated with reference compound at 10 μM).
High control: maximum level of symmetrically dimethylated Arginines (DMSO treated cells).
IC50 and pIC50 (−log IC50) values were calculated using the appropriate software.
pIC50 values (Co. No. means compound number; n.d. means not determined).

[2] = biological target: T1, PRMT5-MEP50 enzyme (Homo sapiens, UniProt O14744); assay: In vitro assay (Assay 1): PRMT5-MEP50 high throughput mass spectrometer assay, inhibition of SAH formation; format: biochemical; details: individual measurements shown, read-out: pIC50 Assay 1 (converted)
T1 construct: One virus expresses full length human PRMT5 with Flag-tag at N-terminus
T1 sequence (O14744 whole entry): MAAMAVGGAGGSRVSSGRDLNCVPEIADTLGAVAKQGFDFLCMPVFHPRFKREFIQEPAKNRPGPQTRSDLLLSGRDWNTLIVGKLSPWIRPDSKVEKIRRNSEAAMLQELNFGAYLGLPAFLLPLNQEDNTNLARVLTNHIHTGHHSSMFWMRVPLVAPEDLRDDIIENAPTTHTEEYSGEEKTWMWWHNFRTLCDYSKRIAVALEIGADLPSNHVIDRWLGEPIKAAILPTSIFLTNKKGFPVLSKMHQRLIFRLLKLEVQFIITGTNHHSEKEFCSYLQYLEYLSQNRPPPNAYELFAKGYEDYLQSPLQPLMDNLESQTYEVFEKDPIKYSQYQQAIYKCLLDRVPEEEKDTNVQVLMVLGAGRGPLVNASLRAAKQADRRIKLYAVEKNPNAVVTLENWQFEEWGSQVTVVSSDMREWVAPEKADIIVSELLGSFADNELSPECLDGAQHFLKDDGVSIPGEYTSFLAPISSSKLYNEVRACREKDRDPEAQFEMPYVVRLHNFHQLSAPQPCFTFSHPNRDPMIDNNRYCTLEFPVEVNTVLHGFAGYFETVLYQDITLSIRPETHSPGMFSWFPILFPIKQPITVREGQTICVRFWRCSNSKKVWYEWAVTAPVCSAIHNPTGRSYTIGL
T1 sequence (Q9BQA1 whole entry partner): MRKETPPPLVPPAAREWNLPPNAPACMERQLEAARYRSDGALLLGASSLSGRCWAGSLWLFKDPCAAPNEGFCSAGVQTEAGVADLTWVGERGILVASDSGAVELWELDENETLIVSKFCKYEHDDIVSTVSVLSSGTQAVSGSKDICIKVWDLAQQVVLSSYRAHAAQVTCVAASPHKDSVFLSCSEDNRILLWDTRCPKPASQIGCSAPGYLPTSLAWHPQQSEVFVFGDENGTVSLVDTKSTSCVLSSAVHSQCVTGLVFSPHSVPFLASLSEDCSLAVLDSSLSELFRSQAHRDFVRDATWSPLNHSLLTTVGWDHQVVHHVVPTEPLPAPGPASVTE
Description: EXPERIMENTAL PROCEDURES IN VITRO ASSAY (ASSAY 1)
PRMT5-MEP50 enzyme was purchased from Charles River (Argenta). The enzyme complex was produced in insect cells (Sf9) infected simultaneously with two baculoviruses. One virus expresses full length human PRMT5 with Flag-tag at N-terminus, the second virus expresses full length MEP50 with His6-TEV cleavage at N-terminus. The protein was affinity purified using anti-Flag (M2) beads eluted with 3×FLAG peptide, followed by His-Select eluted with 0.5M imidazole. Eluted protein was then dialysed against tris-buffered saline (TBS) (pH 8.0) containing 20% glycerol and 3 mM dithiothreitol (DTT).
Full-length untagged human recombinant histone H2A (residues 1-130, Genbank Accession #NM_021052, MW=14.1 kDa) expressed in E. coli was purchased from Reaction Biology Corporation, Cat #HMT-11-146. Reagents used for making reaction buffer or stopping reaction were purchased including Tris base (Sigma Cat #T-1503), NaCl (Sigma Cat #RGF-3270), MgCl2 (Sigma Cat #M0250), DTT (Invitrogen Cat #15508-013) and Formic Acid (Riedel deHaen, Cat #33015)
High Throughput Mass Spectrometer Assay
PRMT5 catalyzes the sequential methylations of the terminal nitrogen atoms on the guanidine groups of arginine residues within proteins using co-substrate S-adenosyl-L-methionine (AdoMet, SAM), forming mono-methyl (MMA), symmetric-dimethyl arginine (sDMA) and S-adenosyl-L-homocysteine (AdoHcy, SAH). The enzyme activity was determined by following the product SAH formation using high throughput mass spectrometry (Agilent Rapidfire 300 System coupled to a Sciex 4000 series QTrapm triple-quad MS/MS). The reaction buffer was 20 mM Tris-HC, pH 8.5, 50 mM NaCl, 5 mM MgCl2 and 1 mM DTT. The reaction activity was stopped using 1% formic acid (final concentration).
The IC50 Studies were performed using eleven point dosing series made for each compound by serially diluted 1:2 in dimethyl sulfoxide (DMSO), with point 12 being a DMSO control. Compounds were first spotted to plates, and followed by addition of 2 μM SAM and 0.6 μM H2A (histone H2A) solution mixture. The same volume of enzyme solution was added to initiate the enzymatic reactions. The final concentrations of the reaction are at 1 μM SAM, 0.3 μM H2A and 10 nM enzyme. The reaction was incubated at 30° C. for 60 minutes (min) and then quenched by addition of formic acid to a final concentration of 1%. The inhibitions of SAH formation in the presence of compounds were calculated as a percentage of the control relative to the uninhibited reaction as a function of inhibitor concentration. The data were fit as follows: Y=Bottom+(Top−Bottom)/(1+10^((log IC50−X)*h))
where IC50 is the inhibitor concentration (same unit as X) at 50% inhibition and h is the Hill slope. Y is percent of inhibition, X is log of compound concentration. Bottom and Top are the plateaus in same units as Y.

Row | IC50 [1] [µM] | IC50 [2] | pIC50 Assay 2 [1] | SMILES
1 | 12 | 0.24 µM | – | Nc1ncnc2c1ccn2[C@@H]1O[C@H](CN2CCCC3(CNCCO3)C2)[C@@H](O)[C@H]1O (single isomer, unassigned) [Compound 33]
2 | – | 3.98 µM | <4.7 | Nc1ncnc2c1ccn2[C@@H]1O[C@H](CN2CCCC3(CNCCO3)C2)[C@@H](O)[C@H]1O (single isomer, unassigned) [Compound 34]
3 | ~6.17 | 0.105 µM | – | Nc1ncnc2c1ccn2[C@@H]1O[C@H](CN2CCCC3(CCCCN3)C2)[C@@H](O)[C@H]1O (single isomer, unassigned) [Compound 35]
4 | – | 1.91 µM | ~5.13 | Nc1ncnc2c1ccn2[C@@H]1O[C@H](CN2CCCC3(CCCCN3)C2)[C@@H](O)[C@H]1O (single isomer, unassigned) [Compound 36]
5 | 11.2 | 0.0676 µM | – | Nc1ncnc2c1ccn2[C@@H]1O[C@H](CN2CCCC3(CCCN3)C2)[C@@H](O)[C@H]1O (single isomer, unassigned) [Compound 39]
6 | > 10 | 1.23 µM | – | Nc1ncnc2c1ccn2[C@@H]1O[C@H](CN2CCOCC23CCNC3)[C@@H](O)[C@H]1O (single isomer, unassigned) [Compound 110]
7 | – | 0.174 µM | ~5.26 | Nc1ncnc2c1ccn2[C@@H]1O[C@H](CN2CCOCC23CCNC3)[C@@H](O)[C@H]1O (single isomer, unassigned) [Compound 111]
8 | ~1.66 | 0.0234 µM | – | Nc1ncnc2c1ccn2[C@@H]1O[C@H](CN2C(C(F)(F)F)CCC23CCNCC3)[C@@H](O)[C@H]1O (single isomer, unassigned) [Compound 115]
9 | – | 0.151 µM | 5.53 | Nc1ncnc2c1ccn2[C@@H]1O[C@H](CN2C(C(F)(F)F)CCC23CCNCC3)[C@@H](O)[C@H]1O (single isomer, unassigned) [Compound 116]
10 | 0.501 | 0.0339 µM | – | Nc1ncnc2c1ccn2[C@@H]1O[C@H](CN2CCCC23CCCNCC3)[C@@H](O)[C@H]1O (single isomer, unassigned) [Compound 117]
11 | – | 0.0355 µM | 6.29 | Nc1ncnc2c1ccn2[C@@H]1O[C@H](CN2CCCC23CCCNCC3)[C@@H](O)[C@H]1O (single isomer, unassigned) [Compound 118]
12 | – | 0.155 µM | ~5.97 | Nc1ncnc2c1ccn2[C@@H]1O[C@H](CN2CCCC23CCCNC3)[C@@H](O)[C@H]1O (single isomer, unassigned) [Compound 119]
13 | – | 2.29 µM | <5 | Nc1ncnc2c1ccn2[C@@H]1O[C@H](CN2CCCC23CCCNC3)[C@@H](O)[C@H]1O (single isomer, unassigned) [Compound 120]
14 | 7.24 | 0.219 µM | – | CN1CCC2(CCCN2C[C@H]2O[C@@H](n3cnc4c(N)ncnc43)[C@H](O)[C@@H]2O)CC1 [Compound 1]
15 | > 10 | 0.776 µM | – | CN1CC2(CCCN2C[C@H]2O[C@@H](n3cnc4c(N)ncnc43)[C@H](O)[C@@H]2O)C1 [Compound 2]
16 | > 10 | 1.66 µM | – | CN1CCC2(CCN2C[C@H]2O[C@@H](n3cnc4c(N)ncnc43)[C@H](O)[C@@H]2O)C1 (stereo partly shown) [Compound 3]

Row | IC50 [1] [µM] | IC50 [2] | pIC50 Assay 2 [1] | SMILES
17 | > 10 | 2.29 µM | – | CN1CCC12CCN(C[C@H]1O[C@@H](n3cnc4c(N)ncnc43)[C@H](O)[C@@H]1O)C2 (stereo partly shown) [Compound 4]
18 | > 10 | 8.13 µM | – | CN1CC2(CCN(C[C@H]3O[C@@H](n4cnc5c(N)ncnc54)[C@H](O)[C@@H]3O)C2)C1 [Compound 5]
19 | – | > 100 µM | – | CN1CCC2(C1)CN(C[C@H]1O[C@@H](n3cnc4c(N)ncnc43)[C@H](O)[C@@H]1O)C2 [Compound 6]
20 | > 10 | 66.1 µM | – | CN1CCCC12CN(C[C@H]1O[C@@H](n3cnc4c(N)ncnc43)[C@H](O)[C@@H]1O)C2 [Compound 7]
21 | 1.51 | 0.155 µM | – | CN1CC2(CCCN(C[C@H]3O[C@@H](n4cnc5c(N)ncnc54)[C@H](O)[C@@H]3O)C2)C1 [Compound 8]
22 | > 10 | 0.776 µM | – | CN1CCC2(CC1)CCN2C[C@H]1O[C@@H](n2cnc3c(N)ncnc32)[C@H](O)[C@@H]1O [Compound 9]
23 | > 10 | 38.9 µM and 24.5 µM | – | CN1CCCCC12CN(C[C@H]1O[C@@H](n3cnc4c(N)ncnc43)[C@H](O)[C@@H]1O)C2 [Compound 10]
24 | > 10 | 12.3 µM | – | CN1CC2(CCCCN2C[C@H]2O[C@@H](n3cnc4c(N)ncnc43)[C@H](O)[C@@H]2O)C1 [Compound 11]
25 | > 10 | 67.6 µM | – | CN1CCCC2(C1)CN(C[C@H]1O[C@@H](n3cnc4c(N)ncnc43)[C@H](O)[C@@H]1O)C2 [Compound 12]
26 | > 10 | 0.955 µM | – | CN1CCC2(CCCN2C[C@H]2O[C@@H](n3cnc4c(N)ncnc43)[C@H](O)[C@@H]2O)C1 (stereo partly shown) [Compound 13]
27 | > 10 | 0.977 µM | – | CN1CCC2(CCN(C[C@H]3O[C@@H](n4cnc5c(N)ncnc54)[C@H](O)[C@@H]3O)C2)C1 (stereo partly shown) [Compound 14]
28 | > 10 | 29.5 µM | – | CN1CCCC12CCN(C[C@H]1O[C@@H](n3cnc4c(N)ncnc43)[C@H](O)[C@@H]1O)C2 (stereo partly shown) [Compound 15]
29 | – | > 100 µM | – | CN1CCC12CN(C[C@H]1O[C@@H](n3cnc4c(N)ncnc43)[C@H](O)[C@@H]1O)C2 [Compound 17]
30 | – | – | 7.06 and 7.08 | CC(C)C(=O)O[C@@H]1[C@H](OC(=O)C(C)C)[C@@H](CN2CC(F)(F)CC23CCN(C)CC3)O[C@H]1n1ccc2c(N)ncnc21 [Compound 101]
31 | – | > 10 µM | – | Nc1ncnc2c1ccn2[C@@H]1O[C@H](CN2CCCC2(CN2CCCC2)C(F)(F)F)[C@@H](O)[C@H]1O (stereo partly shown) [Compound 189]
